Assay [1] concerns Mycobacterium tuberculosis. As to the kind of experiment: Antimicrobial activity against Mycobacterium tuberculosis H37Rv by almar blue assay. The class given is functional.
Assay [2] has as its system Mycolicibacterium smegmatis. The assay can be described thus: Antimicrobial activity against Mycobacterium smegmatis. Type of assay: functional.

As usually defined, the MIC50 is the lowest concentration that inhibits either 50% of growth or 50% of the strains tested, depending on the study. The low end stands for greater potency, the high end for weaker potency. Broadly, the MIC is the least concentration at which growth counts as inhibited.

Values after ≈ are worked out from the molar mass of the structure shown.

Turning to `CCCCCCCCCCCCCCCC(=O)O[C@H]1CN(C)[C@@H]([C@@H](C)O[C@@H]2O[C@H](CN)[C@@H](O)[C@H]2O)C(=O)N(C)[C@@H]1C(=O)O`, the MIC50 in assay [1] was > 100 µg/mL. Take `CCCCCCCCCCCCCCCC(=O)O[C@H]1CN(C)[C@@H]([C@H](O[C@@H]2O[C@H](CN)[C@@H](O)[C@H]2O)[C@H]2O[C@@H](n3ccc(=O)[nH]c3=O)[C@H](O)[C@@H]2O)C(=O)N(C)[C@@H]1C(=O)O` [PALMITOYL CAPRAZOL]: the MIC50 in assay [1] was 2.5 µg/mL (≈ 3.07 µM). In assay [2], this molecule gave an MIC of 6.25 µg/mL (≈ 7.68 µM). Regarding `CCCCCCCCCCCCCCCC(=O)OC[C@H](NC(=O)[C@@H](N)[C@H](O[C@@H]1O[C@H](CN)[C@@H](O)[C@H]1O)[C@H]1O[C@@H](n2ccc(=O)[nH]c2=O)[C@H](O)[C@@H]1O)C(=O)O`, the MIC50 in assay [1] is 6.25 µg/mL (≈ 8.08 µM). Still for that read-out and setting: for `CCCCCCCCCCCCCCCC(=O)O[C@H]1CN(C)[C@@H]([C@H](O)[C@H]2O[C@@H](n3ccc(=O)[nH]c3=O)[C@H](O)[C@@H]2O)C(=O)N(C)[C@@H]1C(=O)O` the value was > 100 µg/mL; for `CN1C[C@H](O)[C@@H](C(=O)O)N(C)C(=O)[C@@H]1[C@H](O[C@@H]1O[C@H](CN)[C@@H](O)[C@H]1O)[C@H]1O[C@@H](n2ccc(=O)[nH]c2=O)[C@H](O)[C@@H]1O` [CAPRAZOL], > 100 µg/mL. As to `CO[C@@H]1[C@@H](OC)[C@H](C)O[C@@H](OC(=O)C[C@@H](C)CC(=O)O[C@@H](CCCCCCCCCC(C)C)CC(=O)O[C@H]2CN(C)[C@@H]([C@H](O[C@@H]3O[C@H](CN)[C@@H](O)[C@H]3O)[C@H]3O[C@@H](n4ccc(=O)[nH]c4=O)[C@H](O)[C@@H]3O)C(=O)N(C)[C@@H]2C(=O)O)[C@@H]1OC`, it took 1.56 µg/mL (≈ 1.38 µM) to inhibit growth in assay [2] (MIC).

The record behind these values is ChEMBL document CHEMBL1157188, “Structure-activity relationship of truncated analogs of caprazamycins as potential anti-tuberculosis agents” (2008).
